Patent US9433616B2, “Methods and compositions for decreasing saliva production” (priority 2005, dated 2016)

Experiments:
[1] = test system: salivation in patients with Parkinson's disease; details: in vivo; cited from earlier work
[2] = test system: muscarinic receptors in the muscles of the eye; details: cited from earlier work
[3] = test system: excessive sialorrhea in children with developmental disabilities; details: cited from earlier work
[4] = test system: clozapine-induced sialorrhea; details: in vivo; cited from earlier work
[5] = test system: Parkinson's Disease (PD) patients complaining of sialorrhea; details: human, in vivo, po
Method: The aim was to assess personal impression by the patients of their sialorrhea symptoms, including, drooling, speech performance, and social interference, as well as the presence of side effects, such as blurred vision, confusion, somnolence, tachycardia, hypotension, or any other discomforting sensation. The patients were evaluated for 2 hours in an outpatient clinic while resting in comfortable armchairs. They rated themselves on a visual analog scale by marking a line representing the amount of disability incurred by their sialorrhea both before and after the treatment by responding to the question: “How would you grade the effect of the drops that you were administered on your sialorrhea?”
The patients were fluctuating PD patients evaluated in the ON state in the morning, having eaten no food for one hour before the test. […] The patients were instructed to perform some chewing like movements in order to distribute the drug homogeneously. The patients were instructed to fill the visual-analogical scale 1 hour after drug intake. In addition, they were asked about the latency of the effect, if any, and if the effect persisted before leaving.

[6] = test system: dryness of the mouth in human subjects; details: in vivo
Method: This was an evaluation of the placebo and drug-containing disks conducted in a closed room while sitting and carrying on an otherwise normal conversation.
No food or drink intake for approximately 2 hours before test. One disk was inserted in the mouth between gum and cheek on the lower right quadrant of mouth.
All sat in a comfortable room and had not eaten for at least one hour before.

[7] = test system: salivary drying in healthy volunteers; details: in vivo
Method: The time of first noticeable dryness in the mouth and the time to complete disintegration of the film were noted. Comments about adverse events, taste, and tolerance were also recorded by the participants.
The secondary aims of this study were to determine: time of first noticeable dryness in the mouth, time to complete disintegration of the film, and the acceptability and tolerance of the bioadhesive buccal films by the subject.
A blinded randomized crossover study in healthy volunteers.
In each treatment, the product was blind labeled.
A thin film was removed from an individually wrapped pouch and placed in the inner cheek opposite the molars nearest to the submandibular gland. It was positioned with the fingers and the mucoadhesive property facilitated its adhesion.
Dissolve period: the dissolve period of the film was noted. It was defined as the time after which the film was no longer felt in the oral cavity.
The volunteer recorded the tolerance to the buccal mucosa and overall feel during testing.

[8] = test system: Parkinson's Disease (PD) patients suffering from sialorrhea; details: human, in vivo
From the text: They were instructed to apply the drops to their tongues on an as needed basis.

[9] = test system: sialorrhea in PD patients; details: human, in vivo

SMILES: CN1[C@@H]2CC[C@H]1C[C@@H](OC(=O)C(CO)c1ccccc1)C2 (stereo partly shown) [atropine]
- effect after 30 minutes [1]: No effect was noted
- time results first observed after initial treatment [1]: three
- time of peak mydriasis effect ([2]; in vivo): 30 to 40 min

SMILES: CN(C)CCOC(=O)C(c1ccccc1)C1(O)CCCC1 (stereo not shown) [cyclopentolate]
- duration of effect ([2]; eye drops, some effects may persist for up to several days): 8 h

SMILES: C[N+]1(C)CCC(OC(=O)C(O)(c2ccccc2)C2CCCC2)C1 (stereo not drawn) [glycopyrrolate, 3-(α-cyclopentylmandeloy(osy)-1,1-dimethylpyrrolidinium bromide]
- control of excessive sialorrhea [3]: effective
- treated individuals with substantial adverse systemic side effects requiring discontinuation ([3]; systemic administration): approximately 20%

SMILES: CC(C)[N+]1(C)[C@@H]2CC[C@H]1C[C@@H](OC(=O)C(CO)c1ccccc1)C2 (stereo partly shown) [ipratropium]
- clinical response [4]: partial yet clinically meaningful response
- time until effect of the spray wore off [4]: 2 to 8 h

SMILES: CCN(Cc1ccncc1)C(=O)C(CO)c1ccccc1 (stereo not shown) [tropicamide, N-ethyl-N-(4-pyridylmethyl) tropamide]
- effect on heart rate (tachycardia), confusion, somnolence [5]: did not affect heart rate (cause tachycardia), confusion, or somnolence
- photosensitivity complaints [5]: No complaint of photosensitivity
- side effects or complications [5]: None of the patients developed side effects or complications
- time local numbness first noticed ([6]; human): 20 min
- change in pupil size [6]: no obvious change in pupil size
- tolerance [7]: acceptable
- taste tolerance [8]: complained of the taste of the medication
- side effects [9]: No side effects were observed
